In PMC9721025, “Pharmacokinetic study of the main components of Tanreqing capsules and Tanreqing injections in beagles by liquid chromatography–tandem mass spectrometry” (Chinese Medicine, 2022):

What was measured:
[1] = Pharmacokinetics in beagles, single-dose regimen of TRQI (i.v.) or TRQC (oral), plasma LC-MS/MS; format: in vivo, beagle; details: beagle, dog, plasma; for AUC(0-t): read-out: AUC0–24 h; for Cmax / Tmax / half-life: mean of six beagles
Description: (§1) 100 μL plasma sample was drawn and transferred to 1.5 mL centrifuge tube prior to 300 μL protein precipitant (3:1 [v/v] methanol/acetonitrile, containing 0.1% formic acid and 100 ng/mL IS) was added, and then the sample was vortex-mixed for 3 min. The mixture was centrifuged at 20,000 ×g for 10 min, and 100 μL supernatant was transferred to the injection vial and analyzed directly by LC–MS/MS.
(§2) This study was carried out in six beagles (three males and three females, 9.0–12.0 kg each), that were purchased from Junda Pet Hospital (Shanghai, China). This experimental protocol was approved by the Experimental Animal Ethics Committee of the Naval Military Medical University (Shanghai, China).
The six healthy beagles were divided into two groups: beagles 1–3 were all male and were assigned to the first group, and beagles 4–6 were all females and assigned to the second group. The two-cycle, crossover study was designed with a 7-day wash out period. For the single-administration process, the dogs in the first group were injected intravenously with 0.5 mL/kg TRQI (one-third of the normal daily dose), and blood samples were collected at 0, 5, 10, 15, 20, 30, and 45 min and then at 1, 2, 4, 6, 8, 12, and 24 h (a total of 14 time points) after injection. For each blood sample, 1 mL of blood was collected from the forelimb vein in heparin-treated tubes. The dogs in the second group were orally administrated 0.09 g/kg TRQC (one-third of the normal daily dose, and blood samples were collected in the same manner at 0, 10, 20, and 40 min and then at 1, 1.5, 2, 2.5, 3, 4, 6, 8, 12, and 24 h (a total of 14 time points). All blood samples were centrifuged at 4000 × g for 5 min, and each supernatant was collected and aliquoted. After a 7-day wash out period, the dogs in each group were administrated the other Tanreqing formulation in a crossover design, and blood samples were collected and processed in the same way.
(§3) All data obtained were analyzed using Drug and Statistics (DAS) 2.0 software (Chinese Society of Pharmacology), and a non-compartment analysis was used to calculate plasma pharmacokinetic parameters. The principal components of TRQI and TRQC were compared with an analysis of variance (ANOVA) and/or a two-tailed student-t test.

[2] = Stability of analytes in dog plasma (QC samples); format: in vitro ADME
Description: The stock solutions of all analytes were further mixed and diluted with methanol/water (10:90, v/v) solution to prepare the working solutions. […] The QC samples were stored in a refrigerator at – 80 °C until retrieval (see Additional file 1). The stability, which includes short-term stability (6 h at room temperature), long-term stability (− 80 °C for 30 days in the refrigerator), and freeze–thaw stability (three cycles from − 80 °C to room temperature), were assessed using QC samples at three concentration levels in three replicates. […] Similarly, there were no obvious effects on the analysis results of the samples with respect to short-term stability or long-term storage.

[3] = Pharmacokinetics in beagles, multiple-dose regimen (once per day for 7 days) of TRQI or TRQC, plasma LC-MS/MS; format: in vivo; details: beagle, dog; for Cmax at 7 days / Tmax at 7 days / half-life at 7 days: mean
Description: as §1, §2
After the end of the single-dose experiment, the dogs in group one were given 0.5 mL/kg injection of TRQI once per day for 7 days following the wash out period, and the dogs in group two were given 0.09 g/kg TRQC once per day for 7 days. After the seventh administration, blood samples were collected at 0, 10, 20, and 40 min and then at 1, 1.5, 2, 2.5, 3, 4, 6, 8, 12, and 24 h (a total of 14 time points) and were processed as described in “Single-dose regimen” section. The resulting plasma samples were used to determine the steady-state plasma concentration of TRQI and TRQC. A crossover study was again carried out in both groups, as described in “Single-dose regimen” section, after a 7-day washing period.
as §3

[4] = both sexes, iv, single i.v. dose of TRQI 0.5 mL/kg
[5] = both sexes, single oral dose of TRQC 0.09 g/kg
[6] = n = 3, high QC: nominal 200 ng/mL baicalin, 1000 ursodeoxycholic acid, 100 chenodeoxycholic acid and chlorogenic acid
[7] = n = 3, low QC: nominal 4 ng/mL baicalin, 20 ursodeoxycholic acid, 2 chenodeoxycholic acid and chlorogenic acid
[8] = n = 3, middle QC: nominal 20 ng/mL baicalin, 100 ursodeoxycholic acid, 10 chenodeoxycholic acid and chlorogenic acid
[9] = both sexes, iv, TRQI 0.5 mL/kg once per day for 7 days
[10] = both sexes, po, TRQC 0.09 g/kg once per day for 7 days

Compound: O=C(/C=C/c1ccc(O)c(O)c1)O[C@@H]1C[C@](O)(C(=O)O)C[C@@H](O)[C@H]1O [Chlorogenic acid, chlorogenic acid]
- AUC(0-t) ([1]; both sexes, iv, 0.5 mL/kg, single TRQI 0.5 mL/kg, Mean): 20.3 ng·h/mL
- Cmax [1, 4]: 26.6 ng/mL
- Tmax [1, 4]: 0.13 h
- half-life [1, 4]: 53.4 min
- AUC(0-t) ([1]; both sexes, po, 0.09 g/kg, single TRQCs 0.09 g/kg, Mean): 29.1 ng·h/mL
- Cmax [1, 5]: 8.58 ng/mL
- Tmax [1, 5]: 3.75 h
- half-life [1, 5]: 87 min
- AUC(0-t) ([1]; female, iv, 0.5 mL/kg, single TRQI 0.5 mL/kg, beagle No 4): 11.2 ng·h/mL
- AUC(0-t) ([1]; female, iv, 0.5 mL/kg, single TRQI 0.5 mL/kg, beagle No 5): 15.2 ng·h/mL
- AUC(0-t) ([1]; female, iv, 0.5 mL/kg, single TRQI 0.5 mL/kg, beagle No 6): 24.8 ng·h/mL
- AUC(0-t) ([1]; female, po, 0.09 g/kg, single TRQCs 0.09 g/kg, beagle No 4): 13.9 ng·h/mL
- AUC(0-t) ([1]; male, iv, 0.5 mL/kg, single TRQI 0.5 mL/kg, beagle No 1): 29.6 ng·h/mL
- AUC(0-t) ([1]; male, iv, 0.5 mL/kg, single TRQI 0.5 mL/kg, beagle No 2): 17.8 ng·h/mL
- AUC(0-t) ([1]; male, po, 0.09 g/kg, single TRQCs 0.09 g/kg, beagle No 1): 21.1 ng·h/mL
- AUC(0-t) ([1]; male, po, 0.09 g/kg, single TRQCs 0.09 g/kg, beagle No 2): 48.1 ng·h/mL
- AUC(0-t) ([1]; male, po, 0.09 g/kg, single TRQCs 0.09 g/kg, beagle No 3): 33.2 ng·h/mL
- Freeze-thaw stability (3 cycles) Mean ± S.D. concentration [2, 6]: 95.65 ± 3.72 ng/mL
- Long-term stability (30 days at – 80 °C) Mean ± S.D. concentration [2, 6]: 87.31 ± 4.62 ng/mL
- Short-term stability (6 h at room temperature) Mean ± S.D concentration [2, 6]: 88.28 ± 2.72 ng/mL
- Freeze-thaw stability (3 cycles) Mean ± S.D. concentration [2, 7]: 2.07 ± 0.17 ng/mL
- Long-term stability (30 days at – 80 °C) Mean ± S.D. concentration [2, 7]: 1.73 ± 0.05 ng/mL
- Short-term stability (6 h at room temperature) Mean ± S.D concentration [2, 7]: 1.98 ± 0.16 ng/mL
- Freeze-thaw stability (3 cycles) Mean ± S.D. concentration [2, 8]: 10.03 ± 0.84 ng/mL
- Long-term stability (30 days at – 80 °C) Mean ± S.D. concentration [2, 8]: 8.95 ± 0.42 ng/mL
- Short-term stability (6 h at room temperature) Mean ± S.D concentration [2, 8]: 8.97 ± 0.70 ng/mL
- AUC(0-inf) ([3]; both sexes, iv, 0.5 mL/kg, TRQI 0.5 mL/kg for 7 days, Mean): 15.9 ng·h/mL
- AUC(0-t) ([3]; both sexes, iv, 0.5 mL/kg, TRQI 0.5 mL/kg for 7 days, Mean, read-out: AUC0–24 h): 15.4 ng·h/mL
- Cmax at 7 days [3, 9]: 20.3 ng/mL
- Tmax at 7 days [3, 9]: 0.18 h
- half-life at 7 days [3, 9]: 52.8 min
- AUC(0-inf) ([3]; both sexes, po, 0.09 g/kg, TRQC 0.09 g/kg for 7 days, Mean): 12.3 ng·h/mL
- AUC(0-t) ([3]; both sexes, po, 0.09 g/kg, TRQC 0.09 g/kg for 7 days, Mean, read-out: AUC0–24 h): 11.7 ng·h/mL
- Cmax at 7 days [3, 10]: 3.9 ng/mL
- Tmax at 7 days [3, 10]: 3.17 h
- half-life at 7 days [3, 10]: 93.6 min
- AUC(0-inf) ([3]; female, iv, 0.5 mL/kg, TRQI 0.5 mL/kg for 7 days, beagle No. 4): 19.3 ng·h/mL
- AUC(0-t) ([3]; female, iv, 0.5 mL/kg, TRQI 0.5 mL/kg for 7 days, beagle No. 4, read-out: AUC0–24 h): 19.1 ng·h/mL
- AUC(0-inf) ([3]; female, iv, 0.5 mL/kg, TRQI 0.5 mL/kg for 7 days, beagle No. 5): 24.4 ng·h/mL
- AUC(0-t) ([3]; female, iv, 0.5 mL/kg, TRQI 0.5 mL/kg for 7 days, beagle No. 5, read-out: AUC0–24 h): 23.9 ng·h/mL
- AUC(0-inf) ([3]; female, iv, 0.5 mL/kg, TRQI 0.5 mL/kg for 7 days, beagle No. 6): 30.7 ng·h/mL
- AUC(0-t) ([3]; female, iv, 0.5 mL/kg, TRQI 0.5 mL/kg for 7 days, beagle No. 6, read-out: AUC0–24 h): 30 ng·h/mL
- AUC(0-inf) ([3]; female, po, 0.09 g/kg, TRQC 0.09 g/kg for 7 days, beagle No. 4): 23.2 ng·h/mL
- AUC(0-t) ([3]; female, po, 0.09 g/kg, TRQC 0.09 g/kg for 7 days, beagle No. 4, read-out: AUC0–24 h): 22.6 ng·h/mL
- AUC(0-inf) ([3]; female, po, 0.09 g/kg, TRQC 0.09 g/kg for 7 days, beagle No. 5): 13.3 ng·h/mL
- AUC(0-t) ([3]; female, po, 0.09 g/kg, TRQC 0.09 g/kg for 7 days, beagle No. 5, read-out: AUC0–24 h): 11.4 ng·h/mL
- AUC(0-inf) ([3]; female, po, 0.09 g/kg, TRQC 0.09 g/kg for 7 days, beagle No. 6): 27 ng·h/mL
- AUC(0-t) ([3]; female, po, 0.09 g/kg, TRQC 0.09 g/kg for 7 days, beagle No. 6, read-out: AUC0–24 h): 26.9 ng·h/mL
- AUC(0-inf) ([3]; male, iv, 0.5 mL/kg, TRQI 0.5 mL/kg for 7 days, beagle No. 1): 6.07 ng·h/mL
- AUC(0-t) ([3]; male, iv, 0.5 mL/kg, TRQI 0.5 mL/kg for 7 days, beagle No. 1, read-out: AUC0–24 h): 6.07 ng·h/mL
- AUC(0-inf) ([3]; male, iv, 0.5 mL/kg, TRQI 0.5 mL/kg for 7 days, beagle No. 2): 5.59 ng·h/mL
- AUC(0-t) ([3]; male, iv, 0.5 mL/kg, TRQI 0.5 mL/kg for 7 days, beagle No. 2, read-out: AUC0–24 h): 5.24 ng·h/mL
- AUC(0-inf) ([3]; male, iv, 0.5 mL/kg, TRQI 0.5 mL/kg for 7 days, beagle No. 3): 9.2 ng·h/mL
- AUC(0-t) ([3]; male, iv, 0.5 mL/kg, TRQI 0.5 mL/kg for 7 days, beagle No. 3, read-out: AUC0–24 h): 8.21 ng·h/mL
- AUC(0-inf) ([3]; male, po, 0.09 g/kg, TRQC 0.09 g/kg for 7 days, beagle No. 1): 1.31 ng·h/mL
- AUC(0-t) ([3]; male, po, 0.09 g/kg, TRQC 0.09 g/kg for 7 days, beagle No. 1, read-out: AUC0–24 h): 0.72 ng·h/mL
- AUC(0-inf) ([3]; male, po, 0.09 g/kg, TRQC 0.09 g/kg for 7 days, beagle No. 2): 3.2 ng·h/mL
- AUC(0-t) ([3]; male, po, 0.09 g/kg, TRQC 0.09 g/kg for 7 days, beagle No. 2, read-out: AUC0–24 h): 3.19 ng·h/mL
- AUC(0-inf) ([3]; male, po, 0.09 g/kg, TRQC 0.09 g/kg for 7 days, beagle No. 3): 5.62 ng·h/mL
- AUC(0-t) ([3]; male, po, 0.09 g/kg, TRQC 0.09 g/kg for 7 days, beagle No. 3, read-out: AUC0–24 h): 5.21 ng·h/mL
